This note sets out measurements from US9586931B2 (Merck Sharp & Dohme Corp., priority 2012, dated 2017).

This experiment concerns the target T1, recombinant human GST-Syk (Homo sapiens, UniProt P43405).
T1 construct: purchased Carna Biosciences 08-176
The experiment in a line: Homogeneous Time-Resolved Fluorescence (HTRF) assay for the recombinant human Syk enzyme. The experiment is classed as biochemical. The note with it: recombinant human GST-Syk 5 pM, ATP 25 μM, 10-dose titration 10 μM to 0.508 nM; read-out: rhSYK Activity IC50. Here is the method: Syk inhibition may be determined using the following assay protocol:
Homogeneous Time-Resolved Fluorescence (HTRF) assay for the recombinant human Syk enzyme: A recombinant GST-hSyk fusion protein was used to measure potency of compounds to inhibit human Syk activity. […] Final volume of the reaction was 10 μL. Phosphorylation of the peptide was allowed to proceed for 45 minutes at room temperature. To quench the reaction and detect the phosphorylated product, 2 nM of a Europium-anti-phosphotyrosine antibody (Perkin Elmer #AD0161) and 70 nM SA-APC (Perkin-Elmer #CR130-100) were added together in 15 mM Tris pH 7.5, 40 mM EDTA, 0.01% tween 20. Final volume of the quenching solution was 10 μL. The resulting HTRF signal was measured after 30 minutes on an EnVision (Perkin-Elmer) reader using a time-resolved fluorescence protocol.
Background: TR-FRET usually uses a lanthanide donor and a delayed reading to cut background.
In the case of `Cc1cc(Nc2cc(C(F)(F)F)ccn2)nc(-c2cn(C(C)C(=O)N3CCc4[nH]c5c(Cl)cccc5c4C3)nn2)c1` (stereo not drawn) [Example 1.41, 6-{1-[2-(6-chloro-1,3,4,5-tetrahydro-2H-pyrido[4,3-b]indol-2-yl)-1-methyl-2-oxoethyl]-1H-1,2,3-triazol-4-yl}-4-methyl-N-[4-(trifluoromethyl)pyridin-2-yl]pyridin-2-amine], the IC50 – broadly, the midpoint of a concentration-inhibition curve – was found to be 0.131 µM.

`Cc1cc(Nc2cc(C(F)(F)F)ccn2)nc(-c2cn(C3CNCC3O)nn2)c1` (racemic) [Example 5.22, 4-[4-(4-methyl-6-{[4-(trifluoromethyl)pyridin-2-yl]amino}pyridin-2-yl)-1H-1,2,3-triazol-1-yl]pyrrolidin-3-ol]: the IC50 amounted to 0.0198 µM. On to `Cc1cc(Nc2nccc(C(F)(F)F)n2)cc(-c2cn([C@@H]3CCC[C@H](O)C3)nn2)c1` (racemic) [Example 17.1, Racemic cis-3-(4-(3-methyl-5-((4-(trifluoromethyl)pyrimidin-2-yl)amino)phenyl)-1H-1,2,3-triazol-1-yl)cyclohexanol], for which the IC50 is 0.0554 µM. With `Cc1cc(Nc2cc(C(F)F)ccn2)nc(-c2cn(C3CCCCC3O)nn2)c1` (single isomer, unassigned) [Example 7.24, 2-[4-(6-{[4-(difluoromethyl)pyridin-2-yl]amino}-4-methylpyridin-2-yl)-1H-1,2,3-triazol-1-yl]cyclohexanol] the figure was 0.0012 µM; with `Cc1cc(Nc2cc(C(F)(F)F)ccn2)nc(-c2cn(C3CCCCC(O)C3O)nn2)c1` (single isomer, unassigned) [Example 10.3, 3-[4-(4-methyl-6-{[4-(trifluoromethyl)pyridin-2-yl]amino}pyridin-2-yl)-1H-1,2,3-triazol-1-yl]cycloheptane-1,2-diol], 0.001 µM; with `Cc1cc(Nc2cc(C(F)(F)F)ccn2)nc(-c2cn(CC3(O)CCC(C(=O)O)C(C)(C)C3)nn2)c1` (single isomer, unassigned) [Example 3.1, (R or S) 4-hydroxy-2,2-dimethyl-4-{[4-(4-methyl-6-{[4-(trifluoromethyl)pyridin-2-yl]amino}pyridin-2-yl)-1H-1,2,3-triazol-1-yl]methyl}cyclohexanecarboxylic acid], 0.0607 µM. Regarding `Cc1cc(Nc2cc(C(F)(F)F)ccn2)nc(-c2cn(CC(O)C(O)c3ccccc3)nn2)c1` (stereo not drawn) [Example 10.1, 3-(4-(4-Methyl-6-((4-(trifluoromethyl)pyridin-2-yl)amino)pyridin-2-yl)-1H-1,2,3-triazol-1-yl)-1-phenylpropane-1,2-diol], the IC50 turned out to be 0.0088 µM.

Regarding `CCCC(C(=O)OCC)n1cc(-c2cc(C)cc(Nc3cc(C(F)(F)F)ccn3)n2)nn1` (racemic) [Example 5.27, ethyl 2-[4-(4-methyl-6-{[4-(trifluoromethyl)pyridin-2-yl]amino}pyridin-2-yl)-1H-1,2,3-triazol-1-yl]pentanoate], the IC50 is 0.146 µM. Turning to `Cc1cc(Nc2nccc(C(F)F)n2)cc(-c2cn(CC(C)(O)CO)nn2)c1` (single isomer, unassigned) [Example 21.7, 3-[4-(3-{[4-(difluoromethyl)pyrimidin-2-yl]amino}-5-methylphenyl)-1H-1,2,3-triazol-1-yl]-2-methylpropane-1,2-diol], the IC50 worked out at 0.0072 µM. As to `Cc1cc(Nc2cc(C(F)(F)F)ccn2)nc(-c2cn(C(C)C(O)CC#N)nn2)c1` (stereo not drawn) [Example 4.2, 3-hydroxy-4-[4-(4-methyl-6-{[4-(trifluoromethyl)pyridin-2-yl]amino}pyridin-2-yl)-1H-1,2,3-triazol-1-yl]pentanenitrile], the IC50 is 0.0128 µM. The value for `Cc1cc(Nc2cc(C(F)(F)F)ccn2)nc(-c2nncn2C)c1` [Example 16.3, 4-methyl-6-(4-methyl-4H-1,2,4-triazol-3-yl)-N-[4-(trifluoromethyl)pyridin-2-yl]pyridin-2-amine] was 0.389 µM.

On to `Cc1cc(Nc2cc(C(F)(F)F)ccn2)nc(-c2cn(C[C@H](O)C(=O)O)nn2)c1` [Example 4.19, (2S)-2-hydroxy-3-[4-(4-methyl-6-{[4-(trifluoromethyl)pyridin-2-yl]amino}pyridin-2-yl)-1H-1,2,3-triazol-1-yl]propanoic acid], for which the IC50 stood at 0.0149 µM. On to `Cc1cc(Nc2cc(C(F)(F)F)ccn2)nc(-c2cn(C3CCCCC(O)C3O)nn2)c1` (single isomer, unassigned) [Example 10.2, 3-[4-(4-methyl-6-{[4-(trifluoromethyl)pyridin-2-yl]amino}pyridin-2-yl)-1H-1,2,3-triazol-1-yl]cycloheptane-1,2-diol], for which the IC50 was 0.0177 µM.

For the compound `Cc1cc(Nc2cc(C(F)(F)F)ccn2)nc(-c2cn(C3CCC(C(=O)O)C(C)(C)C3)nn2)c1` (single isomer, unassigned) [Example 9.1, (R or S) 2,2-Dimethyl-4-[4-(4-methyl-6-{[4-(trifluoromethyl)pyridin-2-yl]amino}pyridin-2-yl)-1 H-1,2,3-triazol-1-yl]cyclohexanecarboxylic acid], the IC50 amounted to 0.0037 µM. As to `COC(=O)C(c1ccc(F)cc1)n1cc(-c2cc(C)cc(Nc3cc(C(F)(F)F)ccn3)n2)nn1` (racemic) [Example 5.26, methyl (4-fluorophenyl)[4-(4-methyl-6-{[4-(trifluoromethyl)pyridin-2-yl]amino}pyridin-2-yl)-1H-1,2,3-triazol-1-yl]acetate], the half-maximal inhibitory concentration (IC50) is 0.0629 µM.

Regarding `Cc1cc(Nc2cc(C(F)(F)F)ccn2)nc(-c2cn(CC(C)(O)C(=O)O)nn2)c1` (stereo not drawn) [Example 4.18, 2-hydroxy-2-methyl-3-[4-(4-methyl-6-{[4-(trifluoromethyl)pyridin-2-yl]amino}pyridin-2-yl)-1H-1,2,3-triazol-1-yl]propanoic acid], the IC50 is 0.0266 µM.

As for `Cc1cc(Nc2cc(C(F)(F)F)ccn2)nc(-c2cn(Cc3c[nH]cn3)nn2)c1` [Example 5.108, 6-[1-(1H-imidazol-4-ylmethyl)-1H-1,2,3-triazol-4-yl]-4-methyl-N-[4-(trifluoromethyl)pyridin-2-yl]pyridin-2-amine], the IC50 turned out to be 0.0025 µM. As for `Cc1cc(Nc2ncc(F)c(C(F)F)n2)cc(-c2cn(CC3OC(=O)NC3C)nn2)c1` (single isomer, unassigned) [Example 7.39, 5-{[4-(3-{[4-(difluoromethyl)-5-fluoropyrimidin-2-yl]amino}-5-methylphenyl)-1H-1,2,3-triazol-1-yl]methyl}-4-methyl-1,3-oxazolidin-2-one], the IC50 was 0.0123 µM. Turning to `Cc1cc(Nc2cc(C(F)(F)F)ccn2)nc(-c2cn(C[C@H](O)C(N)=O)nn2)c1` [Example 1.13, (2S)-2-hydroxy-3-[4-(4-methyl-6-{[4-(trifluoromethyl)pyridin-2-yl]amino}pyridin-2-yl)-1H-1,2,3-triazol-1-yl]propanamide], the IC50 stood at 0.0034 µM. For `Cc1cc(Nc2cc(C(F)(F)F)ccn2)nc(-c2cn(Cc3[nH]cnc3C)nn2)c1` [Example 5.106, 4-methyl-6-{1-[(4-methyl-1H-imidazol-5-yl)methyl]-1H-1,2,3-triazol-4-yl}-N-[4-(trifluoromethyl)pyridin-2-yl]pyridin-2-amine], the IC50 amounted to 0.0016 µM.

On to `Cc1cc(Nc2cc(C(F)(F)F)ccn2)nc(-c2cn(CC3=CCCCC3)nn2)c1` [Example 9.6, 6-[1-(cyclohex-1-en-1-ylmethyl)-1H-1,2,3-triazol-4-yl]-4-methyl-N-[4-(trifluoromethyl)pyridin-2-yl]pyridin-2-amine], for which the IC50 was found to be 0.0788 µM.

For the compound `Cc1cc(Nc2cc(C(F)F)ccn2)nc(-c2cn(C3CCCCC3O)nn2)c1` (single isomer, unassigned) [Example 7.23, 2-[4-(6-{[4-(difluoromethyl)pyridin-2-yl]amino}-4-methylpyridin-2-yl)-1H-1,2,3-triazol-1-yl]cyclohexanol], the IC50 amounted to 0.0039 µM.

In the case of `Cc1cc(Nc2ncc(F)c(C(F)F)n2)cc(-c2cn(CC3OC(=O)NC3C)nn2)c1` (single isomer, unassigned) [Example 7.38, 5-{[4-(3-{[4-(difluoromethyl)-5-fluoropyrimidin-2-yl]amino}-5-methylphenyl)-1H-1,2,3-triazol-1-yl]methyl}-4-methyl-1,3-oxazolidin-2-one], the IC50 came to 0.0331 µM. As to `Cc1cc(Nc2nccc(C(F)F)n2)cc(-c2cn(CC(C)(O)CC#N)nn2)c1` (single isomer, unassigned) [Example 27.1, 4-(4-(3-((4-(difluoromethyl)pyrimidin-2-yl)amino)-5-methylphenyl)-1H-1,2,3-triazol-1-yl)-3-hydroxy-3-methylbutanenitrile], the IC50 is 0.0197 µM. As for `Cc1cc(Nc2cc(C(F)(F)F)ccn2)nc(-c2cn(C(CO)c3ccc(F)cc3)nn2)c1` (stereo not drawn) [Example 13.7, 2-(4-fluorophenyl)-2-[4-(4-methyl-6-{[4-(trifluoromethyl)pyridin-2-yl]amino}pyridin-2-yl)-1H-1,2,3-triazol-1-yl]ethanol], the IC50 turned out to be 0.0037 µM. For the compound `Cc1cc(Nc2nccc(C(F)(F)F)n2)cc(-n2cc([C@@]3(O)CC[C@H](C(=O)O)C(C)(C)C3)nn2)c1` [Example 15.9, (1S,4R)-4-hydroxy-2,2-dimethyl-4-[1-(3-methyl-5-{[4-(trifluoromethyl)pyrimidin-2-yl]amino}phenyl)-1H-1,2,3-triazol-4-yl]cyclohexanecarboxylic acid], the IC50 was 0.0081 µM.

As to `Cc1cc(Nc2nccc(C(F)F)n2)cc(-c2cn(C3CCCC(C)(O)C3O)nn2)c1` (single isomer, unassigned) [Example 29.3, 3-(4-(3-((4-(Difluoromethyl)pyrimidin-2-yl)amino)-5-methylphenyl)-1H-1,2,3-triazol-1-yl)-1-methylcyclohexane-1,2-diol], the IC50 was determined as 0.0105 µM.
